{"source": "paper PMC9558617", "about": "(ACS infectious diseases, 2022)", "type_in_all_cases": "cell-based, Mycobacterium tuberculosis", "key": {"[1]": {"test_system": "Q112-resistant Mtb strains", "experiment": "microbe, parasite or virus in culture"}, "Mtb strain B3 tatA": {"test_system": "Mtb strain B3 tatA"}, "Mtb strain B2 tatC": {"test_system": "Mtb strain B2 tatC"}, "Mtb strain A6 tatB": {"test_system": "Mtb strain A6 tatB"}, "Mtb strain A3 tatB": {"test_system": "Mtb strain A3 tatB"}, "Mtb strain B1 tatC": {"test_system": "Mtb strain B1 tatC"}}}
{"molecule": "CN[C@H](CC(C)C)C(=O)N[C@H]1C(=O)N[C@@H](CC(N)=O)C(=O)N[C@H]2C(=O)N[C@H]3C(=O)N[C@H](C(=O)N[C@H](C(=O)O)c4cc(O)cc(O)c4-c4cc3ccc4O)[C@H](O)c3ccc(c(Cl)c3)Oc3cc2cc(c3O[C@@H]2O[C@H](CO)[C@@H](O)[C@H](O)[C@H]2O[C@H]2C[C@](C)(N)[C@H](O)[C@H](C)O2)Oc2ccc(cc2Cl)[C@H]1O", "note": "[Vancomycin]", "values": [{"measurement": "factor of MIC decrease (hypersensitivity) versus wild-type", "setting": "[1]", "value": "4–5 factor"}]}
{"molecule": "CC1(C)S[C@@H]2[C@H](NC(=O)[C@H](N)c3ccccc3)C(=O)N2[C@H]1C(=O)O", "note": "[Ampicillin]", "values": [{"measurement": "factor of MIC decrease (hypersensitivity) versus wild-type", "setting": "[1]", "value": "> 16", "unit": "factor"}, {"measurement": "MIC", "setting": "[1]; Mycobacterium tuberculosis", "value": "1.6 to 3.1", "unit": "µM"}]}
{"molecule": "CO[C@H]1/C=C/O[C@@]2(C)Oc3c(C)c(O)c4c(O)c(c(/C=N/N5CCN(C)CC5)c(O)c4c3C2=O)NC(=O)/C(C)=C\\C=C\\[C@H](C)[C@H](O)[C@@H](C)[C@@H](O)[C@@H](C)[C@H](OC(C)=O)[C@@H]1C", "note": "[Rifampicin]", "values": [{"measurement": "factor of MIC decrease (hypersensitivity) versus wild-type", "setting": "[1]", "value": "3–6 factor"}]}
{"molecule": "C[C@@H](O)[C@H]1C(=O)N2C(C(=O)O)=C(SCCN=CN)C[C@H]12", "note": "[Imipenem]", "values": [{"measurement": "resistance (MIC increase) versus wild-type", "setting": "Mtb strain B3 tatA", "value": 16, "unit": "fold"}]}
{"molecule": "C[C@]1(COc2ccc(N3CCC(Oc4ccc(OC(F)(F)F)cc4)CC3)cc2)Cn2cc([N+](=O)[O-])nc2O1", "note": "[Delamanid]", "values": [{"measurement": "MIC increase versus wild-type", "setting": "[1]", "value": "3–12 fold"}]}
{"molecule": "CC(C)/N=c1\\cc2n(-c3ccc(Cl)cc3)c3ccccc3nc-2cc1Nc1ccc(Cl)cc1", "note": "[Clofazimine]", "values": [{"measurement": "resistance (MIC increase) versus wild-type", "setting": "Mtb strain B3 tatA", "value": 4, "unit": "fold"}]}
{"molecule": "Capreomycin", "values": [{"measurement": "MIC B3 tatA", "setting": "Mtb strain B3 tatA", "value": 0.78, "unit": "µM"}, {"measurement": "MIC B2 tatC", "setting": "Mtb strain B2 tatC", "value": 1.2, "unit": "µM"}, {"measurement": "MIC A6 tatB", "setting": "Mtb strain A6 tatB", "value": 1.2, "unit": "µM"}, {"measurement": "MIC A3 tatB", "setting": "Mtb strain A3 tatB", "value": 0.78, "unit": "µM"}, {"measurement": "MIC B1 tatC", "setting": "Mtb strain B1 tatC", "value": 0.78, "unit": "µM"}]}
